Results on 19 compounds are retold here after US9730929B2, “Substituted aminoimidazopyridazines” (BAYER INTELLECTUAL PROPERTY GMBH, priority 2011, dated 2017).

The structures appear in SMILES notation.

T1 sequence (Q9BUB5 other isoform, or with tags, fused parts or gaps T344D): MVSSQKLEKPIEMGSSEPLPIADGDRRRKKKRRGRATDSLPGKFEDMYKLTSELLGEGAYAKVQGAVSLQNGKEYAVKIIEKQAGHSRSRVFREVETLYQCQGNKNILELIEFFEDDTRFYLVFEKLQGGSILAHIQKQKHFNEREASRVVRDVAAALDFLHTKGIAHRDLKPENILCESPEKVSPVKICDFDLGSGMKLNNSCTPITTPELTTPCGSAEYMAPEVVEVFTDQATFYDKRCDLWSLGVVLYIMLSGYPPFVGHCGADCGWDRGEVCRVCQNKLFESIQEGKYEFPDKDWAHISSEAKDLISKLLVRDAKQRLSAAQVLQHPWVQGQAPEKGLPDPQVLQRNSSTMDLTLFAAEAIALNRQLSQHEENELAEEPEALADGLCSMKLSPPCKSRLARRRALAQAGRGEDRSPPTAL

One assay addresses T1, human full-length MKNK1 (Homo sapiens (Human), UniProt Q9BUB5, T344D). The experiment in a line: MKNK1 kinase assay (TR-FRET, 10 μM ATP). The assay is classed as biochemical. To be noted: ATP final conc. 10 μM; 15 min preincubation. The procedure: MKNK1-inhibitory activity of compounds of the present invention was quantified employing the MKNK1 TR-FRET assay as described in the following paragraphs.
As substrate for the kinase reaction the biotinylated peptide biotin-Ahx-[…] (C-terminus in amide form) was used which can be purchased e.g. form the company Biosyntan (Berlin-Buch, Germany).
(§1) For the assay 50 nL of a 100 fold concentrated solution of the test compound in DMSO was pipetted into a black low volume 384 well microtiter plate (Greiner Bio-One, Frickenhausen, Germany), 2 μL of a solution of MKNK1 in aqueous assay buffer [50 mM HEPES pH 7.5, 5 mM magnesium chloride, 1.0 mM dithiothreitol, 0.005% (v/v) Nonidet-P40 (Sigma)] was added and the mixture was incubated for 15 min at 22° C. to allow pre-binding of the test compounds to the enzyme before the start of the kinase reaction. Then the kinase reaction was started by the addition of 3 μL of a solution of adenosine-tri-phosphate (ATP, 16.7 μM=>final conc. in the 5 μL assay volume is 10 μM) and substrate (0.1 μM=>final conc. in the 5 μL assay volume is 0.06 μM) in assay buffer and the resulting mixture was incubated for a reaction time of 45 min at 22° C. The concentration of MKNK1 was adjusted depending of the activity of the enzyme lot and was chosen appropriate to have the assay in the linear range, typical concentrations were in the range of 0.05 μg/ml. The reaction was stopped by the addition of 5 μL of a solution of TR-FRET detection reagents (5 nM streptavidine-XL665 [Cisbio Bioassays, Codolet, France] and 1 nM anti-ribosomal protein 56 (pSer236)-antibody from Invitrogen [#44921G] and 1 nM LANCE EU-W1024 labeled ProteinG [Perkin-Elmer, product no. AD0071]) in an aqueous EDTA-solution (100 mM EDTA, 0.1% (w/v) bovine serum albumin in 50 mM HEPES pH 7.5).
The resulting mixture was incubated for 1 h at 22° C. to allow the formation of complex between the phosphorylated biotinylated peptide and the detection reagents. Subsequently the amount of phosphorylated substrate was evaluated by measurement of the resonance energy transfer from the Eu-chelate to the streptavidine-XL. Therefore, the fluorescence emissions at 620 nm and 665 nm after excitation at 350 nm were measured in a TR-FRET reader, e.g. a Rubystar (BMG Labtechnologies, Offenburg, Germany) or a Viewlux (Perkin-Elmer). The ratio of the emissions at 665 nm and at 622 nm was taken as the measure for the amount of phosphorylated substrate.
Background: Time-resolved FRET reads energy transfer from a long-lived donor to a nearby acceptor.
For orientation: IC50 means the point on the concentration scale where inhibition reaches its midpoint. A low value points to greater potency in that assay. `CCN(CCO)c1ccc2ncc(-c3cc4ccccc4o3)n2n1` [Example 1] showed a half-inhibitory concentration (IC50) of 7 nM.

In turn, `CN(C[C@H](O)c1cccc(O)c1)c1ccc2ncc(-c3cc4ccccc4o3)n2n1` [Example 3] had a half-maximal inhibitory concentration (IC50) of 1 nM. Against the preceding compound, the IC50 is about 7-fold lower.

`COc1cccc2oc(-c3cnc4ccc(N(C)C[C@H](O)c5cccc(O)c5)nn34)cc12` [Example 9, 3-[(1R)-1-Hydroxy-2-{[3-(4-methoxy-1-benzofuran-2-yl)imidazo[1,2-b]pyridazin-6-yl](methyl)amino}eth-yl]phenol]: 2 nM corresponded to half-maximal inhibition (IC50). This IC50 is about 2-fold higher than that of the compound before.

As for `CN(CC(O)c1ccccc1)c1ccc2ncc(-c3cc4ccccc4o3)n2n1` (stereo not shown) [Example 10, 2-{[3-(1-Benzofuran-2-yl)imidazo[1,2-b]pyridazin-6-yl](methyl)amino}-1-phenylethanol], the IC50 was found to be 3 nM.

A further assay deals with T1, human full-length MKNK1. The experiment in a line: MKNK1 kinase high ATP assay (TR-FRET, 2 mM ATP). The assay is classed as biochemical. To be noted: ATP final conc. 2 mM; 15 min preincubation. The protocol: MKNK1-inhibitory activity at high ATP of compounds of the present invention after their preincubation with MKNK1 was quantified employing the TR-FRET-based MKNK1 high ATP assay as described in the following paragraphs.
As substrate for the kinase reaction the biotinylated peptide biotin-Ahx-[…] (C-terminus in amide form) was used, which can be purchased e.g. from the company Biosyntan (Berlin-Buch, Germany).
as §1, with “3.3 mM=>final” for “16.7 μM=>final”, “2 mM)” for “10 μM)”, “30” for “45”, “0.003 μg/mL.” for “0.05 μg/ml.”, “S6” for “56”, “4D0071])” for “AD0071])”
The resulting mixture was incubated for 1 h at 22° C. to allow the formation of complex between the phosphorylated biotinylated peptide and the detection reagents. Subsequently the amount of phosphorylated substrate was evaluated by measurement of the resonance energy transfer from the Eu-chelate to the streptavidine-XL.
Regarding `CN(CC(O)c1ccccc1)c1ccc2ncc(-c3cc4ccccc4o3)n2n1` (single isomer, unassigned; (+)) [Example 13, (+)-2-{[3-(1-Benzofuran-2-yl)imidazo[1,2-b]pyridazin-6-yl](methyl)amino}-1-phenylethanol], the IC50 was found to be 24 nM.

The compound `CN(CC(O)c1ccccc1)c1ccc2ncc(-c3cc4ccccc4o3)n2n1` (single isomer, unassigned; (-)) [Example 12, (−)-2-{[3-(1-Benzofuran-2-yl)imidazo[1,2-b]pyridazin-6-yl](methyl)amino}-1-phenylethanol] had an IC50 of 4 nM.

`CCN(CCO)c1ccc2ncc(-c3cc4ccccc4o3)n2n1` [Example 1] displayed an IC50 of 20 nM. This IC50 lies about 5-fold higher than the previous one.

As for `COc1cccc2oc(-c3cnc4ccc(N(C)C[C@H](O)c5cccc(O)c5)nn34)cc12` [Example 9, 3-[(1R)-1-Hydroxy-2-{[3-(4-methoxy-1-benzofuran-2-yl)imidazo[1,2-b]pyridazin-6-yl](methyl)amino}eth-yl]phenol], it took 4 nM to reach half-maximal inhibition (IC50).

Compound `CN(CC(O)c1ccccc1)c1ccc2ncc(-c3cc4ccccc4o3)n2n1` (stereo not shown) [Example 10, 2-{[3-(1-Benzofuran-2-yl)imidazo[1,2-b]pyridazin-6-yl](methyl)amino}-1-phenylethanol] showed an IC50 of 4 nM. This lies in the single-digit nanomolar range.

`CN(CC(O)c1cccnc1)c1ccc2ncc(-c3cc4ccccc4o3)n2n1` (stereo not shown) [Example 11, 2-{[3-(1-Benzofuran-2-yl)imidazo[1,2-b]pyridazin-6-yl](methyl)amino}-1-(pyridin-3-yl)ethanol] showed an IC50 of 2 nM.

`CC(O)CN(C)c1ccc2ncc(-c3cc4ccccc4o3)n2n1` (stereo not shown) [Example 14, 1-{[3-(1-Benzofuran-2-yl)imidazo[1,2-b]pyridazin-6-yl](methyl)amino}propan-2-ol] showed an IC50 of 9 nM.

Consider `COc1nccc2oc(-c3cnc4ccc(N(C)CC(C)O)nn34)cc12` (stereo not shown) [Example 15, 1-{[3-(4-Methoxyfuro[3,2-c]pyridin-2-yl)imidazo[1,2-b]pyridazin-6-yl](methyl)amino}propan-2-ol], for which the IC50 stood at 10 nM.

Compound `OC(CN(c1ccc2ncc(-c3cc4ccccc4o3)n2n1)C1CC1)c1ccccc1` (stereo not shown) [Example 16, 2-{[3-(1-Benzofuran-2-yl)imidazo[1,2-b]pyridazin-6-yl](cyclopropyl)amino}-1-phenylethanol] yielded an IC50 of 24 nM. Against the preceding compound, the IC50 is about 2.4-fold higher.

Regarding `COc1nccc2oc(-c3cnc4ccc(N(C)C(C)CO)nn34)cc12` (stereo not shown) [Example 17, 2-{[3-(4-Methoxyfuro[3,2-c]pyridin-2-yl)imidazo[1,2-b]pyridazin-6-yl](methyl)amino}propan-1-ol], the half-maximal inhibitory concentration (IC50) came out at 26 nM. The IC50 values of the last two compounds are within 1.5-fold of each other.

`OC(CN(c1ccc2ncc(-c3cc4ccccc4o3)n2n1)C1CC1)c1ccc(F)cc1` (stereo not shown) [Example 18, 2-{[3-(1-Benzofuran-2-yl)imidazo[1,2-b]pyridazin-6-yl](cyclopropyl)amino}-1-(4-fluorophenyl)ethanol] showed a concentration for half-maximal inhibition (IC50) of 42 nM.

In turn, `CC(CO)N(C)c1ccc2ncc(-c3cc4ccccc4o3)n2n1` (stereo not shown) [Example 19, 2-{[3-(1-Benzofuran-2-yl)imidazo[1,2-b]pyridazin-6-yl](methyl)amino}propan-1-ol] returned a half-inhibitory concentration (IC50) of 47 nM.

In turn, `CC(C)CN(CC(O)c1ccccc1)c1ccc2ncc(-c3cc4ccccc4o3)n2n1` (stereo not shown) [Example 20, 2-{[3-(1-Benzofuran-2-yl)imidazo[1,2-b]pyridazin-6-yl](isobutyl)amino}-1-phenylethanol] showed an IC50 of 48 nM. The IC50 values of the last two compounds are within 1.5-fold of each other.

On to `CC(C)N(CC(O)c1ccccc1)c1ccc2ncc(-c3cc4ccccc4o3)n2n1` (stereo not shown) [Example 21, 2-{[3-(1-Benzofuran-2-yl)imidazo[1,2-b]pyridazin-6-yl](isopropyl)amino}-1-phenylethanol], for which the IC50 was found to be 52 nM.

In turn, `CN(CC(O)c1ccccc1)c1ccc2ncc(-c3cc4ccncc4o3)n2n1` (stereo not shown) [Example 22, 2-{[3-(Furo[2,3-c]pyridin-2-yl)imidazo[1,2-b]pyridazin-6-yl](methyl)amino}-1-phenylethanol] displayed a half-inhibitory concentration (IC50) of 1 nM.

With `CN(CC(O)c1ccccc1)c1ccc2ncc(-c3cc4cnccc4o3)n2n1` (stereo not shown) [Example 23, 2-{[3-(Furo[3,2-c]pyridin-2-yl)imidazo[1,2-b]pyridazin-6-yl](methyl)amino}-1-phenylethanol], the midpoint of inhibition, the IC50, lay at 1 nM.

`COc1nccc2oc(-c3cnc4ccc(N(C)CC(O)c5ccccc5)nn34)cc12` (stereo not shown) [Example 24, 2-{[3-(4-Methoxyfuro[3,2-c]pyridin-2-yl)imidazo[1,2-b]pyridazin-6-yl](methyl)amino}-1-phenylethanol] returned a half-inhibitory concentration (IC50) of 3 nM.

Take `CCOc1nccc2oc(-c3cnc4ccc(N(C)CC(O)c5ccccc5)nn34)cc12` (stereo not shown) [Example 25, 2-{[3-(4-Ethoxyfuro[3,2-c]pyridin-2-yl)imidazo[1,2-b]pyridazin-6-yl](methyl)amino}-1-phenylethanol]: the half-maximal inhibitory concentration (IC50) worked out at 5 nM.
